Values joined by “and” are separate entries in the source; they are usually repeats but may differ in a detail not shown here. Equal entries are not always repeated. In the oligonucleotide strings, read from the 5' end, every base follows the letter of its sugar. An asterisk marks phosphorothioate; unmarked linkages are phosphodiester. Other units and linkages are bracketed, terminal groups are in braces. A string of capitals states the bases alone. {D01} = GalNAc ligand D01, attached to sense strand by a phosphodiester bond; m = 2'-O-methyl; f = 2'-fluoro
Columns and labels:
hTLR7 = target: T1, hTLR7 (Homo sapiens, UniProt Q9NYK1); assay: Agonistic activity on hTLR7 cells (HEK BLUE, QUANTI-Blue OD650); assay type: cell-based; details: 24 h, transfection with RNAiMAX, maximum concentration 200 nM
T1 construct: host or cells: HEK BLUE hTLR7 (HEK293-derived SEAP reporter line)
T1 sequence (Q9NYK1 27-1049): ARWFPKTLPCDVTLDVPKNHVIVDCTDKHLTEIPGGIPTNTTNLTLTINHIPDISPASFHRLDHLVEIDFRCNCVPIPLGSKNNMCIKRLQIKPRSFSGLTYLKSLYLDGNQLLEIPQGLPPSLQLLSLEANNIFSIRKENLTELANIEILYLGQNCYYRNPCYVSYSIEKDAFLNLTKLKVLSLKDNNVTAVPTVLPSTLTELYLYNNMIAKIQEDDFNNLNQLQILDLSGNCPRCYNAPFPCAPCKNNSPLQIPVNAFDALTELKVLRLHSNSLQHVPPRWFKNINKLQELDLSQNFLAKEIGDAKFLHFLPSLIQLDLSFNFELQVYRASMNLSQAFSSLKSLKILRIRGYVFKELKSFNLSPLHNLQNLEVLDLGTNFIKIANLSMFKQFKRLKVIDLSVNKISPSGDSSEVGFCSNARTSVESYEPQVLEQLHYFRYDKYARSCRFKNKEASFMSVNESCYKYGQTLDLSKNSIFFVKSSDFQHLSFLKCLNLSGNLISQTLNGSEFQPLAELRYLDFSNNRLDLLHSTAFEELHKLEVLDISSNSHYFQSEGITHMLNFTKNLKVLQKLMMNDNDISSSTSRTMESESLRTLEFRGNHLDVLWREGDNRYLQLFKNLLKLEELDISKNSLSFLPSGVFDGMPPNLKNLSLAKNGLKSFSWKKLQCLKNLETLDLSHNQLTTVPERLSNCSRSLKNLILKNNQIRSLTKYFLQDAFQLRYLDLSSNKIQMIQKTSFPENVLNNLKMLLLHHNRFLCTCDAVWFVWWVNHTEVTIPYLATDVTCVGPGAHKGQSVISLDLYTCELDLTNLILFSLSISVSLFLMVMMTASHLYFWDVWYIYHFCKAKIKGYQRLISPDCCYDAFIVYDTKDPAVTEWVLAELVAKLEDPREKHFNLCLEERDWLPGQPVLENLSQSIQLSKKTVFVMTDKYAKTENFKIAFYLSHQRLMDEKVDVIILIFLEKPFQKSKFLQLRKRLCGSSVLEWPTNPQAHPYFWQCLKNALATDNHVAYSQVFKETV
Procedure: (§1) 1) The conjugate of the present invention was diluted to a concentration that was 20 times a final concentration, the diluted conjugate was mixed with RNAiMAX-OPTI MEM (RNAiMAX:OPTI MEM=3:47) at a ratio of 1:1 and incubated for 15 min at room temperature.
(§2) 2) 10 μL of incubated conjugate of the present invention was added into a corresponding cell plate, with 10 concentrations in total, a maximum concentration being 200 nM, and double duplicated wells for each concentration.
10 μL of 0.5 μM BLOCK-iT™ Alexa Fluor® Red Fluorescent Control was added into 2 transfection positive control wells.
4) 90 μL of cells were seeded into a 96-well plate with the conjugate at the density of 50,000 cells/well. […]
7) Compound activity detection: 20 μL of cell supernatant was taken from each well and added into an experimental plate containing 180 μL of QUANTI-Blue™ reagent and then incubated for 1 h at 37° C., followed by detecting an absorbance values at 650 nm (OD650) using the multifunctional microplate reader Flexstation III.
Compound activity: the OD650 values were analyzed using GraphPad Prism software, and a dose effect curve of the compound was fit, and the EC50 value of the compound was calculated. […] The cell activity % value was analyzed using GraphPadPrism software, the dose effect curve of the compound was fit, and the CC50 value of the compound on cell was calculated.

HEK BLUE hTLR8 = assay: Cell activity detection (CellTiter-Glo) in hTLR8 cells; assay type: cell-based, human; details: 24 h, maximum concentration 200 nM, read-out: CC50
Procedure: as §1, §2
(§3) 4) 90 μL of cells were seeded into a 96-well plate with the conjugate at the density of 50,000 cells/well.
(§4) 5) The conjugate of the present invention and the cells were co-incubated for 24 h in an incubator under the conditions of 37° C. and 5% CO2.
(§5) 8) Cell activity detection: the operation was carried out according to the method in the Celltiter-Glo specification, and a chemiluminescence signals (RLU) were detected using the multifunctional microplate reader Flexstation III.
(§6) Compound activity: the OD650 values were analyzed using GraphPad Prism software, and a dose effect curve of the compound was fit, and the EC50 value of the compound was calculated. Cell activity detection: the calculation formula of cell activity % was as follows. The cell activity % value was analyzed using GraphPadPrism software, the dose effect curve of the compound was fit, and the CC50 value of the compound on cell was calculated.

HEK BLUE hTLR7 = assay: Cell activity detection (CellTiter-Glo) in hTLR7 cells; assay type: cell-based, human; details: 24 h, maximum concentration 200 nM, read-out: CC50
Procedure: as §1, §2, §3, §4, §5, §6

AGT mRNA = assay: Mouse hAGT HDI model (liver AGT mRNA); assay type: in vivo; details: 5 mg/kg single s.c. dose, liver on Day 4; for AGT mRNA expression of mouse liver after administration/before administration, Average: group average (4 mice); for AGT mRNA expression of mouse liver after administration/before administration: individual animal, 5 mg/kg
Procedure: The targeting of a target gene in a sample to be tested and the inhibitory effect on the target gene were evaluated by a mouse model injected with pcDNA-CMV-AGT plasmids via tail vein at high pressure.
pcDNA-CMV-AGT plasmids, BALB/c female mice, DPBS (Dulbecco's phosphate buffer solution), and a conjugate of the present invention.
6 to 8-week-old BALB/c female mice were purchased, and the mice were adapted to quarantine for one week after arriving at an animal room.
On Day 0, the mice were divided into groups at random according to weight data, with 4 mice in each group, all the mice were dosed subcutaneously after grouping, with a single dose at 10 mL/kg. The mice in group 1 were dosed with DPBS; the mice in group 2 were dosed with AD-85481 at the dose of 5 mg/kg; the mice in group 3 were dosed with the conjugate 3 of the present invention at the dose of 5 mg/kg; the group 4 was dosed with the conjugate 2 of the present invention at the dose of 5 mg/kg.
On Day 3 after administration, all the mice were injected with the pcDNA-CMV-AGT plasmids at a volume of 8% of their weight via the tail vein within 5 s (injection volume (mL)=mouse weight (g)×8%). The mass of the plasmids injected into each mouse was 10 μg.
On Day 4 after administration, all groups of mice were euthanized by CO2 inhalation, and 2 liver samples were collected from each mouse. The liver samples were treated with RNAlater at 4° C. overnight, then RNAlater was removed, and subsequently the samples without RNAlater were stored at −80° C. for detecting the expression level of AGT genes.
4. In the table, the data represent AGT mRNA expression of mouse liver after administration/AGT mRNA expression of mouse liver before administration, […]

Substance	EC50 (hTLR7) [nM]	CC50 (HEK BLUE hTLR8) [nM]	CC50 (HEK BLUE hTLR7) [nM]	AGT mRNA expression of mouse liver after administration/before administration, Average (AGT mRNA) [%]	AGT mRNA expression of mouse liver after administration/before administration (AGT mRNA)
Conjugate 2: Double-stranded RNAi analog against AGT, D01 GalNAc ligand on sense strand; sense SEQ ID NO: 6, antisense SEQ ID NO: 2 containing Z (sense mA*mU*fCfCmAfCfAfAmUmGmAmGmAfGmUmAmCmA-{D01}; antisense CUCACAUGUACNCUCAUUGUGGAUGACGA; antisense: chemistry not given here; antisense strand modified, includes nucleotide analog Z, further chemistry not fully specified)	> 200	> 200	> 200	3	2% (2×) and 3% and 4%
Conjugate 3: Double-stranded RNAi analog against AGT, D01 GalNAc ligand on sense strand; sense SEQ ID NO: 7, antisense SEQ ID NO: 2 containing Z (sense mA*mU*fCfCmAfCfAfAmUmGmAfGmAmGmUmAmCmA-{D01}; antisense CUCACAUGUACNCUCAUUGUGGAUGACGA; antisense: chemistry not given here; antisense strand modified, includes nucleotide analog Z, further chemistry not fully specified)	> 200	> 200	> 200	3	3% (2×) and 2% (2×)
